The text below walks through data of patent EP4293019A1, “4-SUBSTITUTED (1H-BENZO[D]IMIDAZOL-2-YL)-1H-PYRAZOLES AS BUB1 INHIBITORS USEFUL FOR TREATING CANCERS” (Netherlands Translational Research Center Holding B.V., priority 2022, dated 2023).

The structures appear in SMILES notation. A value given as a limit tells only on which side of the number the result lay.

One assay deals with U2OS cells. Kind of assay: Cellular proliferation assay (SRB proliferation assay). Type of assay: cell-based. Conditions: Homo sapiens, 72 h treatment, SRB staining, N=2, n=3. How it is done:
This protocol describes how the Cellular Proliferation Assay was performed to determine pIC50 values of compounds of general formula (I) against U2OS cells.
U2OS (human osteosarcoma) cells were purchased at ATCC and were tested on regular basis for mycoplasma contamination. Cultures were discarded after 2-3 months of use. Cells were cultured at 37°C under 7% CO2 in DMEM (Sigma Aldrich, D6546) supplemented with GlutaMAX (2 mM, ThermoFisher), 10% (v/v) heat-inactivated newborn calf serum (Seradigm), penicillin and streptomycin (200 µg/mL each, Duchefa) (complete medium). Medium was refreshed every 2-3 days and cells were passaged by trypsinization twice a week at 80-90% confluence. Cell viability was assessed by Trypan Blue exclusion and cell quantification using a TC20™ Automated Cell Counter (Bio-Rad).
Assays were performed in 96-well plates (Greiner, Cellstar, 655180) by seeding (day 0), treatment (day 1) and subsequent incubation for 72 h. Cells were fixed, stained and staining was subsequently dissolved after which absorbance was measured. Each assay included the following controls: (i) a background control (to which no cells were added), (ii) t0 controls (separate assay plate in which cells were fixed on day 1, used as 0% proliferation), (iii) nontreated controls (present in each assay plate, treated with vehicle and used as 100% proliferation). Cells were treated with different concentrations of indicated inhibitor. All inhibitors were tested in two separate assays and all inhibitor concentrations were tested in triplicate per assay (N=2, n=3).
For each assay, U2OS cells from 10 cm dishes were seeded into 96-well plates (3,000 cells/well) and subsequently incubated overnight to allow for cell adherence. Stocks of inhibitor and vehicle (all in DMSO) were diluted in complete medium to obtain 2x working solutions (1% DMSO). Cell medium was replaced by fresh complete medium (50 µL), treatment was started by addition of the 2x working solutions (50 µL) and plates were incubated at 37°C for 72 h. Cell medium was replaced by fresh serum free medium (100 µL) and cells were fixed by addition of 30 µL 50% (w/v) aq. trichloroacetic acid after which the plates were incubated at 4°C for 60 min. Wells were emptied by shaking the plates upside down after which wells were washed three times with demineralized water and air-dried overnight. To each well, 60 µL of SRB solution (0.4% (w/v) in 1% aq. acetic acid) was added and plates were incubated for 30 min. The excess SRB was removed and the wells were washed three times with 1% aq. acetic acid and air-dried overnight. Bound SRB was redissolved by addition of 150 µL 10 mM TRIS (free-base) and absorbance was measured at 540 nm on a CLARIOstar plate reader. Data was normalized between t0 and nontreated controls and plotted using GraphPad Prism 8.0 using "Nonlinear regression (curve fit)" and "log(inhibitor) vs. normalized response - Variable slope" to determine pIC50 values.
Inhibition is indicated as pIC50 ("-" = not measured). Compounds having an activity designated as "A" provided an pIC50 ≥ 6.0 (IC50 ≤1 µM); compounds having an activity designated as "B" provided an 5.3 ≤ pIC50 < 6.0 (1 µM<IC50 ≤ 5 µM); compounds having an activity designated as "C" provided an 5.0 ≤ pIC50 < 5.3 (5 µM < IC50 ≤ 10 µM); compounds having an activity designated as "D" provided an 5.0 < pIC50 ≤ 4.7 (10 µM < IC50 ≤ 20 µM); and compounds having an activity designated as "E" provided an pIC50 < 4.7 (IC50 >20 µM).

The target in another assay is T1, hBUB1 (Homo sapiens, UniProt O43683).
T1 construct: purchased Carna Biosciences 05-187
Briefly: hBUB1 kinase activity assay (biochemical fluorescence polarization assay, IMAP). Conditions: BUB1/BUB3 3.26 nM, ATP 15 µM, BUB1/BUB3 substrate 75 nM; N=2, n=2; read-out: hBUB1 pIC50 (converted). On the procedure: This protocol describes how the Kinase Activity Assay was performed to determine pIC50 values of compounds of general formula (I) against hBUB1.
Assays were performed in 384-well plates (Greiner, black, flat bottom, 781076) by sequential addition (final concentrations are indicated) of inhibitor (5 µL, 0.3 nM - 1 µM or 3 nM - 10 µM), BUB1/BUB3 (5 µL, 3.26 nM, Carna Biosciences (05-187), lot: 15CBS-0644 D), ATP (5 µL, 15 µM) and BUB1/BUB3 substrate (5 µL, 75 nM, Carna Biosciences (05-187MSSU)), all as 4x working solutions. The final concentration of DMSO was 1%. Assay reactions were stopped by addition of IMAP progressive binding reagent (20 µL, 1200x diluted, Molecular Devices (R8155), lot: 3117896). Each assay included the following controls: (i) a background control (treated with vehicle instead of inhibitor and BUB1/BUB3 substrate), (ii) MIN controls (treated with 5 µM BAY1816032 (MedChem Express) as inhibitor, used as 0% BUB1 activity) and (iii) MAX controls (treated with vehicle instead of inhibitor, used as 100% BUB1 activity). All inhibitors were tested in two separate assays and all inhibitor concentrations were tested in duplicate per assay (N=2, n=2).
For each assay, assay buffer (AB) was freshly prepared and consisted of 20 mM HEPES (prepared by diluting 1 M HEPES, pH 7.2), 5 mM MgCl2, 0.01% Tween-20 and 1 mM DTT. Stocks of inhibitors (in DMSO) were diluted in AB to obtain 4x working solutions (4% DMSO) and 5 µL was added to the assay plate. BUB1/BUB3 (3.26 µM (486 µg/mL) in storage buffer) was diluted in AB to obtain 13.0 nM of which 5 µL was added to all wells of the assay plate. The assay plate was centrifuged (1 min, 200 g) and incubated at RT for 30 min. ATP (4 mM in MilliQ) was diluted in AB to obtain 60 µM of which 5 µL was added to each well. BUB1/BUB3 substrate (1 mM) was diluted in 20 mM HEPES (prepared by diluting 1 M HEPES (pH 7.2) in MilliQ) to obtain 80 µM (this solution was freshly prepared every assay) and further diluted in AB to obtain 300 nM after which 5 µL was added to each well of the assay plate except for background control wells. The assay plate was centrifuged (1 min, 200 g) and incubated at RT in the dark for 180 min. IMAP progressive binding buffer A (5x) and IMAP progressive binding buffer B (5x) were mixed in a ratio to obtain 30% buffer A and 70% buffer B, which was subsequently diluted 5x in MilliQ. IMAP progressive binding reagent was diluted 600x in aforementioned mixture of buffer A and B (to obtain a 2x working solution) of which 20 µL was added to each well of the assay plate. The assay plate was centrifuged (1 min, 200 g) and incubated at RT in the dark for 90 min. Fluorescence polarization was measured on a CLARIOstar plate reader using the following settings: (i) optic settings → excitation = F: 482-16, dichroic = F: LP 504, emission = F: 530-40, (ii) optic = top optic, (iii) speed/precision = maximum precision, (iv) focus adjustment was performed for every assay and (v) gain adjustment was done by setting the target mP value to 35 mP for one of the MIN control wells. Data was normalized between MIN and MAX controls and data was plotted using GraphPad Prism 8.0 using "Nonlinear regression (curve fit)" and "log(inhibitor) vs. normalized response - Variable slope" to determine pIC50 values.
Inhibition is indicated as pIC50 ("-" = not measured). Compounds having an activity designated as "A" provided an pIC50 ≥ 7.0 (IC50 ≤100 nM); compounds having an activity designated as "B" provided an 6.3 ≤ pIC50 < 7.0 (100 nM<IC50 ≤ 500 nM); compounds having an activity designated as "C" provided an 6.0 ≤ pIC50 < 6.3 (500 nM < IC50 ≤ 1 µM); compounds having an activity designated as "D" provided an 6.0 < pIC50 ≤ 5.0 (1 µM < IC50 ≤ 10 µM); and compounds having an activity designated as "E" provided an pIC50 < 5.0 (IC50 >10 µM).
(Fluorescence polarisation rises when a labelled molecule tumbles more slowly, as on binding a larger partner.)

T1 sequence (O43683 whole entry): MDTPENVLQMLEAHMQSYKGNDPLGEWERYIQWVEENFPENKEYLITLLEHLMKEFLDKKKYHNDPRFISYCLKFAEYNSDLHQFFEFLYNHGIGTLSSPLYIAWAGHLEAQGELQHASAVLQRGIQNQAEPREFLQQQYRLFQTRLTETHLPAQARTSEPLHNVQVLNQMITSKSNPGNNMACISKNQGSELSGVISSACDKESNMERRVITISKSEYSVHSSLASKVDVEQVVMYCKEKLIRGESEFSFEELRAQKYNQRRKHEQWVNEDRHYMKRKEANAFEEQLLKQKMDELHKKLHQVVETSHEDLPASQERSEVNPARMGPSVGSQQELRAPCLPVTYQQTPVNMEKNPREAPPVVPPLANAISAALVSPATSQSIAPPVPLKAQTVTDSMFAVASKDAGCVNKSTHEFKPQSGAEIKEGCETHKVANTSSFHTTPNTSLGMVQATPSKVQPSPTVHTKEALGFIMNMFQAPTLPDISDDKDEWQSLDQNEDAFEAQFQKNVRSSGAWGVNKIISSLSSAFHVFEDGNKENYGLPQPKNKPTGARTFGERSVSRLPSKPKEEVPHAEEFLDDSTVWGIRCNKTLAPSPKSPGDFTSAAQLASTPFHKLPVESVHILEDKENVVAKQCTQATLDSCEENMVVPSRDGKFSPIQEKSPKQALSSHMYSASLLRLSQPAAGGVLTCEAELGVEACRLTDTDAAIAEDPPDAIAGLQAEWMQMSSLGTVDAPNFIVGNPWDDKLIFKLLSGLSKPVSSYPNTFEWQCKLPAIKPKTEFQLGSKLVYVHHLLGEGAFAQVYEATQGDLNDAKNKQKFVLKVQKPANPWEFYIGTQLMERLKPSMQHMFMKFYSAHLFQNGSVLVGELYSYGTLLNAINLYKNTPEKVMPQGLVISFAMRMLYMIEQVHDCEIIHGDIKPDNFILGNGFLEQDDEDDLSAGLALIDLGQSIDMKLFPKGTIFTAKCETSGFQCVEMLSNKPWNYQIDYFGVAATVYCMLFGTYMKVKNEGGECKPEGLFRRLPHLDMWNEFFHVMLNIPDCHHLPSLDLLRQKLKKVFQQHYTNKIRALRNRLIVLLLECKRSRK
T1 sequence (O43684 whole entry partner): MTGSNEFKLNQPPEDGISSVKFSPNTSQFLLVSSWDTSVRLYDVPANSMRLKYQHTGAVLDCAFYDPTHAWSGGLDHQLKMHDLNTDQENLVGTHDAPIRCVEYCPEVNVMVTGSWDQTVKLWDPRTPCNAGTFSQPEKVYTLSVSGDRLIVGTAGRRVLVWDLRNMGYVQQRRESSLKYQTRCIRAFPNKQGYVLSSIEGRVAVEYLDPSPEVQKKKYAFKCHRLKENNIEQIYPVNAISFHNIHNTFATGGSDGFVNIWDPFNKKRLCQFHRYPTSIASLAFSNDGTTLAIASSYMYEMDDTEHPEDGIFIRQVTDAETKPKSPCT

On to `COc1cnc(-c2cc(Cl)ccc2F)nc1Nc1c[nH]nc1-c1nc2cc(CN3CCOCC3)ccc2[nH]1` [Compound 57, 2-(5-Chloro-2-fluorophenyl)-5-methoxy-N-(3-(5-(morpholinomethyl)-1H-benzo[d]imidazol-2-yl)-1H-pyrazol-4-yl)pyrimidin-4-amine], for which the IC50 with U2OS cells was not above 1 µM; at hBUB1 it was not above 0.1 µM.

On to `C#Cc1ccc(F)c(-c2ncc(OC)c(Nc3c[nH]nc3-c3nc4cc(CN5CCOCC5)ccc4[nH]3)n2)c1F` [Compound 60, 2-(3-Ethynyl-2,6-difluorophenyl)-5-methoxy-N-(3-(5-(morpholinomethyl)-1H-benzo[d]imidazol-2-yl)-1H-pyrazol-4-yl)pyrimidin-4-amine], for which the values for the IC50 with U2OS cells and on hBUB1 were not above 1 µM and not above 0.1 µM, respectively.

Take `COc1cnc(-c2cccc(Cl)c2)nc1Nc1c[nH]nc1-c1nc2cc(CN3CCOCC3)ccc2[nH]1` [Compound 51, 2-(3-Chlorophenyl)-5-methoxy-N-(3-(5-(morpholinomethyl)-1H-benzo[d]imidazol-2-yl)-1H-pyrazol-4-yl)pyrimidin-4-amine]: the IC50 with U2OS cells was not above 1 µM; on hBUB1, not above 0.1 µM.

As to `C#Cc1cccc(-c2nccc(Nc3c[nH]nc3-c3nc4cc(CN5CCOCC5)ccc4[nH]3)n2)c1` [Compound 42, 2-(3-Ethynylphenyl)-N-(3-(5-(morpholinomethyl)-1H-benzo[d]imidazol-2-yl)-1H-pyrazol-4-yl)pyrimidin-4-amine], the results for the IC50 in the assay on U2OS cells and at hBUB1 were 1 to 5.01 µM and not above 0.1 µM, respectively.

As to `COc1cnc(-c2c(F)ccc(Cl)c2F)nc1Nc1c[nH]nc1-c1nc2cc(CN3CCOCC3)ccc2[nH]1` [Compound 59, 2-(3-Chloro-2,6-difluorophenyl)-5-methoxy-N-(3-(5-(morpholinomethyl)-1H-benzo[d]imidazol-2-yl)-1H-pyrazol-4-yl)pyrimidin-4-amine], the IC50 is not above 1 µM in the assay with U2OS cells and not above 0.1 µM on hBUB1.

Consider `COc1cnc(-c2cccc(Cl)c2F)nc1Nc1c[nH]nc1-c1nc2cc(CN3CCOCC3)ccc2[nH]1` [Compound 55, 2-(3-Chloro-2-fluorophenyl)-5-methoxy-N-(3-(5-(morpholinomethyl)-1H-benzo[d]imidazol-2-yl)-1H-pyrazol-4-yl)pyrimidin-4-amine], for which the IC50 in the assay on U2OS cells was not above 1 µM; on hBUB1 it was not above 0.1 µM.

Take `N#Cc1cccc(-c2nccc(Nc3c[nH]nc3-c3nc4cc(CN5CCOCC5)ccc4[nH]3)n2)c1` [Compound 44, 3-(4-((3-(5-(Morpholinomethyl)-1H-benzo[d]imidazol-2-yl)-1H-pyrazol-4-yl)amino)pyrimidin-2-yl)benzonitrile]: the IC50 in the assay with U2OS cells is 1 to 5.01 µM; on hBUB1 it was 0.501 to 1 µM.

With `Fc1c(Cl)cccc1-c1nccc(Nc2c[nH]nc2-c2nc3cc(CN4CCOCC4)ccc3[nH]2)n1` [Compound 45, 2-(3-Chloro-2-fluorophenyl)-N-(3-(5-(morpholinomethyl)-1H-benzo[d]imidazol-2-yl)-1H-pyrazol-4-yl)pyrimidin-4-amine], the IC50 was 1 to 5.01 µM in the assay with U2OS cells and not above 0.1 µM on hBUB1.
